According to patent publication US20250257060A1, “OXADIAZOLE COMPOUND, PHARMACEUTICAL COMPOSITION COMPRISING SAME, AND USE THEREOF” (SUZHOU GENHOUSE BIO CO., LTD., priority 2022, published 2025):
Read-outs that look alike come from different tables or passages of the source.

What was measured:
[1] = Phase I metabolic stability in human liver microsomes (HLMs); format: in vitro ADME, humans; details: HLM; for Remaining rate (NCF = 60 min): buffer instead of NADPH regeneration system; for Remaining rate (T = 60 min): with NADPH; for CLint scaled at 1 µM / half-life at 1 M / microsomal CLint at 1 M: human, liver microsomes, pH 7.4; for microsomal CLint at 1 M: read-out: CLint (mic)
Description: (§1) Phase I metabolic stability of the test compounds in liver microsomes of CD-1 mice (MLMs), Sprague-Dawley rats (RLMs), beagle dogs (DLMs), cynomolgus monkeys (CLMs), and humans (HLMs) was evaluated.
(§2) The animal and human liver microsomes used in the test system were purchased from Xenotech, Corning, or other qualified suppliers and stored in a freezer at a temperature below −60° C. prior to use.
(§3) The test samples and control compounds were separately incubated with animal and human liver microsomes at 37±1° C. for a period of incubation time up to 60 min. The samples were removed at the indicated time points, and the reaction was stopped with acetonitrile or other organic solvents containing an internal standard. After centrifugation, the resulting supernatants were assayed by liquid chromatography-tandem mass spectrometry (LC-MS/MS).
(§4) 73.21 g of dipotassium hydrogenphosphate trihydrate and 10.78 g of potassium dihydrogenphosphate were dissolved in 4000 mL of ultrapure water. The solution was adjusted to pH 7.40±0.10 with 10% phosphoric acid or 1 M potassium hydroxide to make a final concentration of 100 mM.
(§5) The test sample powder was prepared into a stock solution at a certain concentration with DMSO or other organic solvents, which was then further diluted with a proper organic solvent.
(§6) Microsomes of each species were diluted into a 2× working solution with a 100 mM potassium phosphate buffer. The final concentration of the microsomes in the reaction system was 0.5 mg/mL.
(§7) An appropriate amount of nicotinamide adenine dinucleotide phosphate (NADP) and isocitric acid (ISO) powder was weighed out, dissolved in a magnesium chloride solution, and shaken and mixed well. An appropriate amount of isocitrate dehydrogenase (IDH) was added, and the mixture was mixed well by gently turning upside down. The final concentrations in the reaction system were: 1 mM NADP, 1 mM magnesium chloride, 6 mM ISO, and 1 unit/mL IDH.
(§8) Incubation was performed in a 96-well plate. Eight incubation plates were prepared and designated T0, T5, T15, T30, T45, T60, Blank60, and NCF60, respectively. The first 6 plates corresponded to reaction time points of 0, 5, 15, 30, 45, and 60 min, respectively. No test sample or control compound was added to the Blank60 plate, and samples were taken after 60 min of incubation. In the NCF60 plate, incubation was performed for 60 min using the potassium phosphate buffer instead of the NADPH regeneration system solution. Three replicates were made for samples in all conditions.
(§9) The microsomes and the test sample or control compound were mixed, and then the incubation plates Blank60, T5, T15, T30, T45, and T60 except for TO and NCF60 were placed in a 37° C. water bath for pre-incubation for about 10 min. In the incubation plate TO, a stop solution was first added, followed by addition of the NADPH regeneration system working solution, and 98 μL of the potassium phosphate buffer was added to each sample well of the incubation plate NCF60 to initiate the reaction. After the pre-incubations of the incubation plates Blank60, T5, T15, T30, T45, and T60 were completed, 98 μL of the NADPH regeneration system working solution was added to each sample well to initiate the reaction. The reaction temperature was 37±1° C., the final volume of the reaction was 200 μL, and the reaction system included 0.5 mg/mL microsomes, […], 1 mM NADP, 6 mM ISO, and 1 unit/mL IDH.
(§10) At 5 min, 15 min, 30 min, 45 min, and 60 min, a cold stop solution containing an internal standard was added to the reaction plate to stop the reaction.
(§11) All the reaction plates after the reaction was stopped were shaken well and centrifuged at 3220×g at 4° C. for 20 min. After the supernatant was diluted according to a certain proportion, LC-MS/MS analysis was performed.
(§12) Sample analysis was performed by the liquid chromatography-tandem mass spectrometry (LC-MS/MS) method without standard curves and quality control samples. […]

[2] = Pharmacokinetic test in mice (IV and PO); format: in vivo, BALB/c mice; details: for Cmax / AUC(0-inf) / AUC(0-t) / MRT inf / Vd / Tmax: BALB/c, mouse, plasma; for MRT inf: read-out: MRT(0-∞); for Vd: read-out: Vz
Procedure, shortened: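 BALB/c mice (3 per group) given single IV or intragastric doses; blood sampled orbitally at 0.25–24 h into K2-EDTA tubes for plasma. Concentrations measured by LC-MS/MS; parameters from non-compartmental analysis with linear-log trapezoidal method.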

[3] = Phase I metabolic stability in rat liver microsomes (RLMs); format: in vitro ADME, Sprague-Dawley rats; details: RLM; for Remaining rate (NCF = 60 min): buffer instead of NADPH regeneration system; for Remaining rate (T = 60 min): with NADPH; for CLint scaled at 1 µM / half-life at 1 M / microsomal CLint at 1 µM: Sprague-Dawley, rat, liver microsomes, pH 7.4; for microsomal CLint at 1 µM: read-out: CLint (mic)
Description: as §1, §2, §3, §4, §5, §6, §7, §8, §9, §10, §11, §12

[4] = Phase I metabolic stability in mouse liver microsomes (MLMs); format: in vitro ADME, CD-1 mice; details: MLM; for CLint scaled at 1 µM / half-life at 1 M / microsomal CLint at 1 M: CD-1, mouse, liver microsomes, pH 7.4; for microsomal CLint at 1 M: read-out: CLint (mic); for Remaining rate (NCF = 60 min): buffer instead of NADPH regeneration system; for Remaining rate (T = 60 min): with NADPH
Description: as §1, §2, §3, §4, §5, §6, §7, §8, §9, §10, §11, §12

[5] = po, 10 mg/kg, read-out: C0/Cmax
[6] = po, 100 mg/kg, read-out: C0/Cmax
[7] = mice, PO 30 mg/kg (Cmax), read-out: C0/Cmax

O=C(N[C@@H]1CCCC[C@H]1N1Cc2ccc(-c3nnc(C(F)F)o3)cc2S1(=O)=O)C(F)F [Compound 2]
Remaining rate (NCF = 60 min) [1]: 97.3%
Remaining rate (T = 60 min) [1]: 86.1%
CLint scaled at 1 µM [1]: < 8.6 mL/min/kg
half-life at 1 M [1]: > 2.42 h
microsomal CLint at 1 M [1]: < 9.6 µL/min/mg
Cmax [2, 5]: 13.9 µM
Cmax [2, 6]: 87.9 µM
AUC(0-inf) ([2]; mice, IV 2 mg/kg): 12.6 µM·h
AUC(0-t) ([2]; mice, IV 2 mg/kg): 12.6 µM·h
Cmax ([2]; mice, IV 2 mg/kg (C0)): 6.75 µM
MRT inf ([2]; mice, IV 2 mg/kg): 2.35 h
Vd ([2]; mice, IV 2 mg/kg): 0.55 L/kg
AUC(0-inf) ([2]; mice, PO 10 mg/kg): 77.8 µM·h
AUC(0-t) ([2]; mice, PO 10 mg/kg): 77.7 µM·h
Tmax ([2]; mice, PO 10 mg/kg): 0.5 h
MRT inf ([2]; mice, PO 10 mg/kg): 4.5 h
AUC(0-inf) ([2]; mice, PO 30 mg/kg): 182 µM·h
AUC(0-t) ([2]; mice, PO 30 mg/kg): 182 µM·h
Tmax ([2]; mice, PO 30 mg/kg): 0.67 h
Cmax [2, 7]: 35 µM
MRT inf ([2]; mice, PO 30 mg/kg): 3.66 h
AUC(0-inf) ([2]; mice, PO 100 mg/kg): 601 µM·h
AUC(0-t) ([2]; mice, PO 100 mg/kg): 601 µM·h
Tmax ([2]; mice, PO 100 mg/kg): 1.33 h
MRT inf ([2]; mice, PO 100 mg/kg): 4.33 h
CLz ([2]; mice, IV 2 mg/kg): 6 mL/min/kg
t½z ([2]; mice, IV 2 mg/kg): 1.01 h
F ([2]; mice, PO 10 mg/kg): 123.92%
t½z ([2]; mice, PO 10 mg/kg): 1.62 h
F ([2]; mice, PO 30 mg/kg): 96.93%
t½z ([2]; mice, PO 30 mg/kg): 0.87 h
F ([2]; mice, PO 100 mg/kg): 95.71%
t½z ([2]; mice, PO 100 mg/kg): 0.81 h
Remaining rate (NCF = 60 min) [3]: 93.0%
Remaining rate (T = 60 min) [3]: 76.4%
CLint scaled at 1 µM [3]: < 17.3 mL/min/kg
half-life at 1 M [3]: > 2.42 h
microsomal CLint at 1 µM [3]: < 9.6 µL/min/mg
CLint scaled at 1 µM [4]: < 38 mL/min/kg
half-life at 1 M [4]: > 2.42 h
microsomal CLint at 1 M [4]: < 9.6 µL/min/mg
Remaining rate (NCF = 60 min) [4]: 99.8%
Remaining rate (T = 60 min) [4]: 84.8%

O=C(N[C@H]1[C@H](N2Cc3ccc(-c4nnc(C(F)F)o4)cc3S2(=O)=O)CCCC1(F)F)C(F)F [Compound 61]
Remaining rate (NCF = 60 min) [1]: 86.25%
Remaining rate (T = 60 min) [1]: 85.62%
CLint scaled at 1 µM [1]: 7.26 mL/min/kg
half-life at 1 M [1]: 3.99 h
Cmax [2, 5]: 12.6 µM
AUC(0-inf) ([2]; mice, IV 2 mg/kg): 15.4 µM·h
AUC(0-t) ([2]; mice, IV 2 mg/kg): 12.8 µM·h
Cmax ([2]; mice, IV 2 mg/kg (C0)): 4.52 µM
MRT inf ([2]; mice, IV 2 mg/kg): 4.38 h
Vd ([2]; mice, IV 2 mg/kg): 1.18 L/kg
AUC(0-inf) ([2]; mice, PO 10 mg/kg): 73.4 µM·h
AUC(0-t) ([2]; mice, PO 10 mg/kg): 57 µM·h
Tmax ([2]; mice, PO 10 mg/kg): 1 h
MRT inf ([2]; mice, PO 10 mg/kg): 5.3 h
CLz ([2]; mice, IV 2 mg/kg): 4.35 mL/min/kg
t½z ([2]; mice, IV 2 mg/kg): 3.12 h
F ([2]; mice, PO 10 mg/kg): 89.2%
t½z ([2]; mice, PO 10 mg/kg): 3.551 h
Remaining rate (NCF = 60 min) [3]: 88.24%
Remaining rate (T = 60 min) [3]: 72.95%
CLint scaled at 1 µM [3]: 19.4 mL/min/kg
half-life at 1 M [3]: 2.14 h
CLint scaled at 1 µM [4]: 18.6 mL/min/kg
half-life at 1 M [4]: 4.9 h
Remaining rate (NCF = 60 min) [4]: 83.81%
Remaining rate (T = 60 min) [4]: 85.14%

CC(F)(F)C(=O)N[C@@H]1CCCC[C@H]1N1Cc2ccc(-c3nnc(C(F)F)o3)cc2S1(=O)=O [Compound 1]
Remaining rate (NCF = 60 min) [1]: 83.4%
Remaining rate (T = 60 min) [1]: 79.0%
CLint scaled at 1 µM [1]: < 8.6 mL/min/kg
half-life at 1 M [1]: > 2.42 h
microsomal CLint at 1 M [1]: < 9.6 µL/min/mg
Cmax [2, 5]: 8.97 µM
Cmax [2, 6]: 30.5 µM
AUC(0-inf) ([2]; mice, IV 2 mg/kg): 9.88 µM·h
AUC(0-t) ([2]; mice, IV 2 mg/kg): 9.88 µM·h
Cmax ([2]; mice, IV 2 mg/kg (C0)): 4.52 µM
MRT inf ([2]; mice, IV 2 mg/kg): 2.19 h
Vd ([2]; mice, IV 2 mg/kg): 0.684 L/kg
AUC(0-inf) ([2]; mice, PO 10 mg/kg): 45.2 µM·h
AUC(0-t) ([2]; mice, PO 10 mg/kg): 45.2 µM·h
Tmax ([2]; mice, PO 10 mg/kg): 1 h
MRT inf ([2]; mice, PO 10 mg/kg): 3.35 h
AUC(0-inf) ([2]; mice, PO 30 mg/kg): 73.1 µM·h
AUC(0-t) ([2]; mice, PO 30 mg/kg): 73.1 µM·h
Tmax ([2]; mice, PO 30 mg/kg): 0.417 h
Cmax [2, 7]: 17.5 µM
MRT inf ([2]; mice, PO 30 mg/kg): 3.65 h
AUC(0-inf) ([2]; mice, PO 100 mg/kg): 171 µM·h
AUC(0-t) ([2]; mice, PO 100 mg/kg): 171 µM·h
Tmax ([2]; mice, PO 100 mg/kg): 1.5 h
MRT inf ([2]; mice, PO 100 mg/kg): 3.71 h
CLz ([2]; mice, IV 2 mg/kg): 7.1 mL/min/kg
t½z ([2]; mice, IV 2 mg/kg): 1.062 h
F ([2]; mice, PO 10 mg/kg): 91.46%
t½z ([2]; mice, PO 10 mg/kg): 0.919 h
F ([2]; mice, PO 30 mg/kg): 49.31%
t½z ([2]; mice, PO 30 mg/kg): 0.918 h
F ([2]; mice, PO 100 mg/kg): 34.72%
t½z ([2]; mice, PO 100 mg/kg): 1.292 h
Remaining rate (NCF = 60 min) [3]: 100.2%
Remaining rate (T = 60 min) [3]: 68.9%
CLint scaled at 1 µM [3]: 25.8 mL/min/kg
half-life at 1 M [3]: 1.61 h
microsomal CLint at 1 µM [3]: 14.4 µL/min/mg
CLint scaled at 1 µM [4]: < 38 mL/min/kg
half-life at 1 M [4]: > 2.42 h
microsomal CLint at 1 M [4]: < 9.6 µL/min/mg
Remaining rate (NCF = 60 min) [4]: 97.6%
Remaining rate (T = 60 min) [4]: 79.8%
